Counter-ions that a name gives are not always drawn.
Tested on: human corneal epithelial cell line HCEC
Experiment: Protection against UV-C-induced human corneal epithelial cell damage, viable cell count
Format: cell-based
Conditions: Table 8-2, UV-C 5 seconds
Method: Human corneal epithelial cell line HCEC was suspended in 10% fetal bovine serum-SHEM modified medium at a concentration of 1×10^5 cells/ml and 500 µl of this cell suspension was seeded into each well of a 24-multiwell plate (Corning). The cells were cultured in a 5% CO2 incubator at 37°C for 16 to 17 hours. Then, the culture supernatant was thoroughly removed and 500 µl of 10% fetal bovine serum-SHEM modified medium containing a test sample was added to each well. The cells were cultured under the same conditions as above for a further two hours. After completion of culture in contact with the sample, the culture supernatant was removed thoroughly so that there would be substantially no residue of the sample in the multiwell plate. The multiwell plate in this condition was irradiated with UV-C, the ultraviolet light with a maximum lethal power, at a distance of 20 to 30 cm for 5 seconds. After UV-C irradiation, 500 µl/well of 10% fetal bovine serum-SHEM modified medium containing the same sample as above was added again and the cells were cultured under the same conditions as above for 16 to 17 hours. Then, the supernatant was discarded from each well and 100 µl of an excision solution (PBS containing 0.25% trypsin (w/v) and 0.02% EDTA) was added. The plate was then incubated in a 5% CO2 incubator at 37 °C for 6 minutes. After this incubation, the viable epithelial cells were thoroughly detached and dispersed by pipetting and stained with 100 µl of 0.1% (w/v) trypan blue staining solution, and immediately the viable cells were counted with a hemocytometer. The protective effect of the sample against UV-induced human corneal epithelial cell damage was evaluated by the following computation. Protective effect (%) = (number of viable cells in sample-added group ÷ number of viable cells in sample-free group) × 100 [formula]

Compound	Protective effect (%) (20 µM)	Protective effect (%) (2 mM)
CC(=O)Oc1c(C)c(C)c2c(c1C)CCC(C)(CCCC(C)CCCC(C)CCCC(C)C)O2 (racemic) [Vitamin E, DL-α-tocopherol acetate]	107	–
N[C@@H](CS)C(=O)O [Cysteine]	–	46
O=C1O[C@H]([C@@H](O)CO)C(O)=C1O [Vitamin C, ascorbic acid]	–	104
N[C@@H](CCC(=O)N[C@@H](CS)C(=O)NCC(=O)O)C(=O)O [Glutathione]	–	95
CC(=O)N(O)CCCCCNC(=O)CCC(=O)N(O)CCCCCNC(=O)CCC(=O)N(O)CCCCCN [Deferoxamine mesylate]	–	94
